Measurements: ChEMBL document CHEMBL5465560, “Selectivity Literature for EUbOPEN Chemogenomic Library” (2024)

How the values were obtained:
[1] = molecular target: 5'-AMP-activated protein kinase catalytic subunit alpha-1 (Homo sapiens, UniProt Q13131); test: Selectivity interaction (KinomeScan (DiscoverX)) EUB0000311b PRKAA1; settings: at 1 µM
[2] = molecular target: Vascular endothelial growth factor receptor 2 (Homo sapiens, UniProt P35968); test: Selectivity interaction (KinomeScan (DiscoverX)) EUB0001079a KDR; settings: at 1 µM
[3] = molecular target: Voltage-gated inwardly rectifying potassium channel KCNH2 (Homo sapiens, UniProt Q12809); test: Selectivity interaction (HERG dofetilide binding assay, human recombinant ) EUB0000877a KCNH2
[4] = molecular target: T1, Inhibitor of nuclear factor kappa-B kinase subunit beta (Homo sapiens) (UniProt O14920); test: Selectivity interaction (ActivX KiNativ screen (kinase selectivity in THP-1 cell lysates)) EUB0000639a IKBKB; type: subcellular; settings: lysate, at 0.04 µM
T1 sequence (whole entry): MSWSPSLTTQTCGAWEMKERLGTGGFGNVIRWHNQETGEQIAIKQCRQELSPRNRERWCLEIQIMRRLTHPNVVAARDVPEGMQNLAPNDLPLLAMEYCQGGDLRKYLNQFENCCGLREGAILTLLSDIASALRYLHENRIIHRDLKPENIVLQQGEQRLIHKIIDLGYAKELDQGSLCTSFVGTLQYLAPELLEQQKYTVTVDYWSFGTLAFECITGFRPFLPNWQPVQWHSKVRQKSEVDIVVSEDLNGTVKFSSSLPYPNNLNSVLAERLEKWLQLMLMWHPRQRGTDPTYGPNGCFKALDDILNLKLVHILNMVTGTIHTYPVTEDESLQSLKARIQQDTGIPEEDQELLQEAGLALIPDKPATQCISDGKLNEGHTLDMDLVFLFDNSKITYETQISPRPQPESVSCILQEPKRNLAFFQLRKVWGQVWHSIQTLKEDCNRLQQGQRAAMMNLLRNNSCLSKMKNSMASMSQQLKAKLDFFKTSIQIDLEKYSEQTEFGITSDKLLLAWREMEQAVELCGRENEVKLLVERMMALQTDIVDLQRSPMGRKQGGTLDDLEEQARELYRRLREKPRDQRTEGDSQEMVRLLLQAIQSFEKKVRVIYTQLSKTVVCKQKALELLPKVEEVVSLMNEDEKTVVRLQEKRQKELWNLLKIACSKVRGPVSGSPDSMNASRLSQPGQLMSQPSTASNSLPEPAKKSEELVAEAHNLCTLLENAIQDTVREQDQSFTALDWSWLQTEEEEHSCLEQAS

[5] = molecular target: RAC-alpha serine/threonine-protein kinase (Homo sapiens, UniProt P31749); test: Selectivity interaction (Kinase screening (Nanosyn)) EUB0000604a AKT1
[6] = molecular target: T2, Serine/threonine-protein kinase haspin (Homo sapiens) (UniProt Q8TF76); test: Selectivity interaction (Ambit KINOMEscan and KiNATiv profiling in Jurkat cells) EUB0000090b GSG2; type: cell-based; settings: at 1 µM
T2 sequence (whole entry): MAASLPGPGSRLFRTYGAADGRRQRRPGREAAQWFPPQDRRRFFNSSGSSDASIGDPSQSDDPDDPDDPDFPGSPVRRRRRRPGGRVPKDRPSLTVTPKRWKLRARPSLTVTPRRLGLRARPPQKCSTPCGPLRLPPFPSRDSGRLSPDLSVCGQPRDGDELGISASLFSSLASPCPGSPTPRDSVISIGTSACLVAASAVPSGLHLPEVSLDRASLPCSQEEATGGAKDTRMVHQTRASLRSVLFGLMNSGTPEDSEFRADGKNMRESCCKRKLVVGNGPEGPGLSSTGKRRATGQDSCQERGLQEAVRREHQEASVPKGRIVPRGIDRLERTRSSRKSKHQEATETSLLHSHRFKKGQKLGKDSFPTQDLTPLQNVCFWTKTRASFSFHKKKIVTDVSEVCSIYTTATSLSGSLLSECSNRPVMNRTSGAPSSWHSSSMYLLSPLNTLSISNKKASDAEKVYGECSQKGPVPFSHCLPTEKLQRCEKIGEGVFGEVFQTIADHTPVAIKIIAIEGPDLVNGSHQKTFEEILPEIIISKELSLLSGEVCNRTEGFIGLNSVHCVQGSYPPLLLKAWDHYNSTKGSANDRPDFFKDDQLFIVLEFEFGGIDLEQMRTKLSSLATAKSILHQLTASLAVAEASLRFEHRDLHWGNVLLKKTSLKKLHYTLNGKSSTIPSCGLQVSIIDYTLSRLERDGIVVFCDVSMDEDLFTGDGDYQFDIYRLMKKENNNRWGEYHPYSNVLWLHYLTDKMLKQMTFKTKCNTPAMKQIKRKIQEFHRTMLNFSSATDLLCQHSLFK

[7] = molecular target: Microtubule-associated serine/threonine-protein kinase 1 (Homo sapiens) (UniProt Q9Y2H9); test: Selectivity interaction (KinomeScan (DiscoverX)) EUB0001619a MAST1; settings: at 1 µM
[8] = molecular target: Tyrosine-protein kinase SYK (Homo sapiens, UniProt P43405); test: Selectivity interaction (Upstate Kinase Profiler service (Millipore)) EUB0000056c SYK; settings: at 1 µM
[9] = molecular target: T3, Serine/threonine-protein kinase tousled-like 1 (Homo sapiens) (UniProt Q9UKI8); test: Selectivity interaction (ProQinase) EUB0000171b TLK1
T3 sequence (whole entry): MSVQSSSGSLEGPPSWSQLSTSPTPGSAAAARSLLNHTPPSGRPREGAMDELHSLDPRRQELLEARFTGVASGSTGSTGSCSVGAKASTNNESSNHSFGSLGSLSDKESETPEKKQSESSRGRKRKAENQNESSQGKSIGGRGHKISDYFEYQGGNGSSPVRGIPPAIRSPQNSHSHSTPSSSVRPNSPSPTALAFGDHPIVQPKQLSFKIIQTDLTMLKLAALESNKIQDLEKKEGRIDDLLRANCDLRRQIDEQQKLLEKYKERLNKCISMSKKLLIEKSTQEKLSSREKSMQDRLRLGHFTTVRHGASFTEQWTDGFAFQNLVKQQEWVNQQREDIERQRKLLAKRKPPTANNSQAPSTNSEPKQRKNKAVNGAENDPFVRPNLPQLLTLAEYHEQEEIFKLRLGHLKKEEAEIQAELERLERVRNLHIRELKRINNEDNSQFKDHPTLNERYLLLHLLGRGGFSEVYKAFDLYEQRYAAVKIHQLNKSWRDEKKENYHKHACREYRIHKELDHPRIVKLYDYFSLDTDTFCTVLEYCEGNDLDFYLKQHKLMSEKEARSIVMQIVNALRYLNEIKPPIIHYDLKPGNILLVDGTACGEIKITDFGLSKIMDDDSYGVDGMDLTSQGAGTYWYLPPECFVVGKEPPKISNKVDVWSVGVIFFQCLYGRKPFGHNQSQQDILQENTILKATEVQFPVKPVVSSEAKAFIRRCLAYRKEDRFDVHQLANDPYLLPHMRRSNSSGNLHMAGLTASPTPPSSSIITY

Voltage-gated inwardly rectifying potassium channel KCNH2, sequence (Q12809 whole entry): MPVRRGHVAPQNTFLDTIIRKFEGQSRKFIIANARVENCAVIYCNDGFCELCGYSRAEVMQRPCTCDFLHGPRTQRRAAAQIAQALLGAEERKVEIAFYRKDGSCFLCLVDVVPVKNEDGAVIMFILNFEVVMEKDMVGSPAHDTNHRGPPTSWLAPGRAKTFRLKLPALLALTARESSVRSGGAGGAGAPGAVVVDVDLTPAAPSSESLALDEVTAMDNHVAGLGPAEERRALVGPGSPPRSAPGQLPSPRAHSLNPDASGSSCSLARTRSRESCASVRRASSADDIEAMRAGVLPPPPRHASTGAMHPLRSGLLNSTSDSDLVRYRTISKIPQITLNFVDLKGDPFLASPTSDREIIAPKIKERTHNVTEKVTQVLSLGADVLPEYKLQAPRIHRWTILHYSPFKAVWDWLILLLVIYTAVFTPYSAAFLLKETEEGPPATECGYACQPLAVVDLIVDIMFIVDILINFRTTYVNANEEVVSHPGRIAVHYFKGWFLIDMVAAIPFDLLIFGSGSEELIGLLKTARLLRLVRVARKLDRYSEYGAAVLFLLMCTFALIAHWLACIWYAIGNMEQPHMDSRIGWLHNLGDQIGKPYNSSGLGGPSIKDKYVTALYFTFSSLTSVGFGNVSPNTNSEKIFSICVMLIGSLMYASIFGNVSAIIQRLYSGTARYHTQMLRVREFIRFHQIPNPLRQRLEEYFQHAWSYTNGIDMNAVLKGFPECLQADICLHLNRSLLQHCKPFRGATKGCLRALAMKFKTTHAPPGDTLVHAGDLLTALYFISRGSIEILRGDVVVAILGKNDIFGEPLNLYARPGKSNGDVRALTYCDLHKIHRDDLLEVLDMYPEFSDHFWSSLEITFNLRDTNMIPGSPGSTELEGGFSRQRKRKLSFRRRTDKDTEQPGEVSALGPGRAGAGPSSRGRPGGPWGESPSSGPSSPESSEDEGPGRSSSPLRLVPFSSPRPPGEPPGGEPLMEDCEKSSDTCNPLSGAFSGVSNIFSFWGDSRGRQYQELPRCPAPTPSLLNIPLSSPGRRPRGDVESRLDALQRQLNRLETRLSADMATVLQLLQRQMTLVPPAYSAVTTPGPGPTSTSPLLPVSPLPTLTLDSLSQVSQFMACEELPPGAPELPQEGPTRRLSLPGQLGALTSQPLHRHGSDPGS
Vascular endothelial growth factor receptor 2, sequence (P35968 whole entry): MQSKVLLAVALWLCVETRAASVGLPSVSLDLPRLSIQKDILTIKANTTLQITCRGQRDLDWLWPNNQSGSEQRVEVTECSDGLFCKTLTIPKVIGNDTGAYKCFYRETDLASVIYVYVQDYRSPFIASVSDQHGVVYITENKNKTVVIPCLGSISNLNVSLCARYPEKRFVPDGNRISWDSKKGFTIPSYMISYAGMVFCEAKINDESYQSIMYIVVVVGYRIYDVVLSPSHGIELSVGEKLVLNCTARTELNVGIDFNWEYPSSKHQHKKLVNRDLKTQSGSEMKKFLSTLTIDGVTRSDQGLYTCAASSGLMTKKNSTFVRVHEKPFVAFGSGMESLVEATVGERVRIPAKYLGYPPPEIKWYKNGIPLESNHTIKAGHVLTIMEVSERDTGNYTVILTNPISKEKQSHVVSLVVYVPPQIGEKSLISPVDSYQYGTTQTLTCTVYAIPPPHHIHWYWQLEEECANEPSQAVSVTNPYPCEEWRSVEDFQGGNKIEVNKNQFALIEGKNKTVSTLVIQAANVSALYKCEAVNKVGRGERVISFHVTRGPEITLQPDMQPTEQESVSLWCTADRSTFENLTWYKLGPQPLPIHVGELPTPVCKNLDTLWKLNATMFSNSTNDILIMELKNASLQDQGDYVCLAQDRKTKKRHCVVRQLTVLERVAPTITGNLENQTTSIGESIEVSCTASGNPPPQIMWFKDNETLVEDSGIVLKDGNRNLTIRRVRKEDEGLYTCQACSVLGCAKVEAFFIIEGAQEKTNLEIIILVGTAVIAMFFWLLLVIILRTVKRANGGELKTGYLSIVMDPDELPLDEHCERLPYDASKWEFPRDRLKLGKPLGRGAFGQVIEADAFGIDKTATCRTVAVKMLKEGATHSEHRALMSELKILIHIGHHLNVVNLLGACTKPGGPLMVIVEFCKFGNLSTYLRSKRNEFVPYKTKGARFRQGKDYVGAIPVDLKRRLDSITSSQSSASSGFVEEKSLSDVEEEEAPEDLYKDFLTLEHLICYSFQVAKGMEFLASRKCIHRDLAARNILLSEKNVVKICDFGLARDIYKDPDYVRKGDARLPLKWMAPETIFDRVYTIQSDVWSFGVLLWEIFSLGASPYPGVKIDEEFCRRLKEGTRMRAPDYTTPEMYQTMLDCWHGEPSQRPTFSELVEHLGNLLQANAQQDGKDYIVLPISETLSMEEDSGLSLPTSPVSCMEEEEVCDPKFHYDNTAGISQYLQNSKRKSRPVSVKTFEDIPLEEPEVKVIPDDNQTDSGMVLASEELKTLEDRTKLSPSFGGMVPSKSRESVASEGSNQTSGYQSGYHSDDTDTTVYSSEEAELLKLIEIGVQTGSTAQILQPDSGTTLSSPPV
Microtubule-associated serine/threonine-protein kinase 1 (Homo sapiens), sequence (Q9Y2H9 whole entry, looked up): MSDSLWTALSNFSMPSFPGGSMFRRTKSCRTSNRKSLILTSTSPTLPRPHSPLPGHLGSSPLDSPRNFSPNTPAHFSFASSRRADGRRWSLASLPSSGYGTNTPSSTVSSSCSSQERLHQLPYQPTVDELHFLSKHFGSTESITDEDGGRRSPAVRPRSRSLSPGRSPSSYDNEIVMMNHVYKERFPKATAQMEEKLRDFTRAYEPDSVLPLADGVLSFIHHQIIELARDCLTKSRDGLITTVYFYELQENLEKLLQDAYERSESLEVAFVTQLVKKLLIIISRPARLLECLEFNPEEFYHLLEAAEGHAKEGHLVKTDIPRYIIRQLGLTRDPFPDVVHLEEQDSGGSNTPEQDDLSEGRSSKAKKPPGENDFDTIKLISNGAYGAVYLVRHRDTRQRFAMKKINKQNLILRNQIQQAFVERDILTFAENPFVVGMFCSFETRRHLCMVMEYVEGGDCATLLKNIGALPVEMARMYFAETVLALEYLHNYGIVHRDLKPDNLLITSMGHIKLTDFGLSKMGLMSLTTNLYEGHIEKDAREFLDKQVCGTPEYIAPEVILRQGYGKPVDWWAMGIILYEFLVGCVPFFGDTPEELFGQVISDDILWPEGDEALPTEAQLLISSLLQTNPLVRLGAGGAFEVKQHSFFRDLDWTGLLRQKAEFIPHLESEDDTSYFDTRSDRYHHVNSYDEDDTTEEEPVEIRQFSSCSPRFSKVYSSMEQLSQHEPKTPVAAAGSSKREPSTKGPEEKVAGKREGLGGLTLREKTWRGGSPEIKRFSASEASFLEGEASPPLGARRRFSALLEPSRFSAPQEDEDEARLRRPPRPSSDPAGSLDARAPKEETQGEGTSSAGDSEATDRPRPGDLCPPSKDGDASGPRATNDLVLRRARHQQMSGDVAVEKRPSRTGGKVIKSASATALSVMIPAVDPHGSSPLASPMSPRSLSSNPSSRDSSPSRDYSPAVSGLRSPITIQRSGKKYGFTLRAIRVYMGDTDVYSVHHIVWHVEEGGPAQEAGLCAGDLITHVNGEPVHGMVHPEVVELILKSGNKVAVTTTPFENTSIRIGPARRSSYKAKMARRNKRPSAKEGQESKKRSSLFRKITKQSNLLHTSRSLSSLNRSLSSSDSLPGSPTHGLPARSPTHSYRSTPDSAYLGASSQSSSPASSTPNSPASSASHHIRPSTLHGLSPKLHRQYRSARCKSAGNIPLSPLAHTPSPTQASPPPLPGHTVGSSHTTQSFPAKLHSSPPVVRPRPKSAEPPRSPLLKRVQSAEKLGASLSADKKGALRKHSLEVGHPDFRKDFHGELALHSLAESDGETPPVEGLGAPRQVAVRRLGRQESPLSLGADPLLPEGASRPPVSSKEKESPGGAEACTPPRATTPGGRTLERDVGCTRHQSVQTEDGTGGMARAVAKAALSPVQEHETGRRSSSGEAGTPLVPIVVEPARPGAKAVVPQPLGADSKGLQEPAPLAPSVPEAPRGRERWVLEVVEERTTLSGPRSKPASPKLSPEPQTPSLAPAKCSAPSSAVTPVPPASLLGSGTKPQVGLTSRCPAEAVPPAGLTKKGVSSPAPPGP
5'-AMP-activated protein kinase catalytic subunit alpha-1, sequence (Q13131 whole entry, looked up): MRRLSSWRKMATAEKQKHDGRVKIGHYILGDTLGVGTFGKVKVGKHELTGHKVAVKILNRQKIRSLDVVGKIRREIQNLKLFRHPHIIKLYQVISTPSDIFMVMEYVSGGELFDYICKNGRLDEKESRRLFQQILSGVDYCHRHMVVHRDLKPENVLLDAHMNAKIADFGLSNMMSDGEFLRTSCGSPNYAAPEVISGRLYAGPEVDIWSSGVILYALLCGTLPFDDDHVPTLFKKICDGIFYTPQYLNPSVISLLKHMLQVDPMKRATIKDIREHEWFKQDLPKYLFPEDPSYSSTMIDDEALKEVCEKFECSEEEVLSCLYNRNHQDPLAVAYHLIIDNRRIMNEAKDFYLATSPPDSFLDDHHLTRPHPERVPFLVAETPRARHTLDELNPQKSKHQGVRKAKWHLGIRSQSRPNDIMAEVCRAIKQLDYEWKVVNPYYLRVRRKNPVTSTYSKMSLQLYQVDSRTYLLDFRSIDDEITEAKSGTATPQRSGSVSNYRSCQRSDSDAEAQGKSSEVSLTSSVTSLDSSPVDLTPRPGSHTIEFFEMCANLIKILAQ
RAC-alpha serine/threonine-protein kinase, sequence (P31749 whole entry): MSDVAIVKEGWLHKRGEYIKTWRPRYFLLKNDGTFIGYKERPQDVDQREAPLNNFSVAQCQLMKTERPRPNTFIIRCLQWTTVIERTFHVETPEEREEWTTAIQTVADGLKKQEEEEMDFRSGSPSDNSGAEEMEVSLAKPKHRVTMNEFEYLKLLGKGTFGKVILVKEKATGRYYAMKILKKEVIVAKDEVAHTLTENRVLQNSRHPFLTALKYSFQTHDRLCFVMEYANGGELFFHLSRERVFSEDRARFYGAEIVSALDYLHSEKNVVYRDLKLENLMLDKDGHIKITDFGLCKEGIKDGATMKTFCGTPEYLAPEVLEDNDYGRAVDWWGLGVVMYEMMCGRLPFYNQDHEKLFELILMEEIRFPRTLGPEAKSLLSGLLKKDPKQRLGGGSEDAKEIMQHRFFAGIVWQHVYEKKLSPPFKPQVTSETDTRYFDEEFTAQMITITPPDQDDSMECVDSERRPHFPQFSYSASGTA

CCc1ccccc1C(=O)Nc1n[nH]c2c(C)c(F)c(C3C(C#N)=C(C)N(C)C(C)=C3C#N)cc12 [BAY-3827]
% of control [1]: 7.5%

Nc1cnc(N2CCc3cc(S(=O)(=O)Nc4c(F)cc(Cl)cc4F)cc(N4CCCC4=O)c32)nc1 [TP-020n]
% of control [2]: 81%

CCC(=O)N1CC[C@H](Nc2ncnc3c2CN(c2cnc(OC)c(C(F)(F)F)c2)CC3)C1 [LENIOLISIB]
IC50 [3]: > 30 µM

CC[C@@H]1[C@H](F)C(=O)N[C@@H]1COc1nccc2cc(C(N)=O)c(OC)cc12 [ZIMLOVISERTIB]
% of inhibition [4]: -3.9%

Cc1cnc(Nc2ccc(F)cc2Cl)nc1-c1c[nH]c(C(=O)N[C@H](CO)c2cccc(Cl)c2)c1
% of inhibition [5]: 0%

CN(C)C/C=C/C(=O)Nc1ccc(C(=O)N2CCCC(Nc3ncc(Cl)c(-c4c[nH]c5ccccc45)n3)C2)cc1 (stereo not given)
% of control [6]: 73%

N#Cc1cccc(-c2c[nH]c3ncnc(N4CCOCC4)c23)c1
% of control [7]: 73%

Cc1ccc(-c2ccc3c(ccc4sc5c(c43)NC[C@@H](C)NC5=O)n2)cn1
% of inhibition [8]: -7%

C=CC(=O)Nc1cccc(C(=O)Nc2ccc(Nc3cc(-c4[nH]c(SC)nc4C)ccn3)cc2)c1
% of control ([9]; at 1 µM): 97%
% of control ([9]; at 5 µM): 90%
